Test [1] relates to angiotensin II-induced pressor responses. The test is described as follows: Test C: antagonism of angiotensin II-induced pressor responses in anaesthetised or conscious rats (in vivo). As to conditions: iv, rat, i.v. administration. As for the experimental part: Test C: This in vivo test involves using terminally-anaesthetised or conscious rats in which an arterial catheter has been implanted under anaesthesia for the measurement of changes in blood pressure. The AII antagonistic effects of the test compound following oral or parenteral administration, are assessed against angiotensin II-induced pressor responses. To ensure that the effect is specific, the effect of the test compound on vasopressin-induced pressor responses may also be determined in the same preparation.

Test [2] addresses T1, angiotensin II (AII) receptors, cell surface membrane fraction of guinea pig adrenal gland (Cavia porcellus, UniProt Q9WV26).
T1 construct: from tissue; host or cells: guinea pig adrenal gland, cell surface membrane fraction
T1 sequence (Q9WV26 1-359): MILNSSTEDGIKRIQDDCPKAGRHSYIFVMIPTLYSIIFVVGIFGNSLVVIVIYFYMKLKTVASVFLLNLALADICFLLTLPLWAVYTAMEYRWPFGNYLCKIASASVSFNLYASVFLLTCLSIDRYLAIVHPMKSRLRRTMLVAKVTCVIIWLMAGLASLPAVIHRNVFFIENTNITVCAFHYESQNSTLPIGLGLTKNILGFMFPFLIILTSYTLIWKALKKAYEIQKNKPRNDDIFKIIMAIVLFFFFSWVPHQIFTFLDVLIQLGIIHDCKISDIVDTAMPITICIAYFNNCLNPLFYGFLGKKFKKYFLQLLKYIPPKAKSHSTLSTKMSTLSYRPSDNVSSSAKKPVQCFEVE
The test is described as follows: Test A: displacement of radiolabelled AII binding to adrenal membrane fraction (in vitro). As to conditions: guinea pig adrenal membranes, read-out: IC50 (concentration for 50% displacement of radiolabelled AII binding). As for the experimental part:
Test A: This in vitro procedure involves the incubation of the test compound initially at a concentration of 100 micromolar (or less) in a buffered mixture containing fixed concentrations of radiolabelled AII and a cell surface membrane fraction prepared from a suitable angiotensin target tissue. In this test, the source of cell surface membranes is the guinea pig adrenal gland which is well known to responsd to AII. Interaction of the radiolabelled AII with its receptors (assessed as radiolabel bound to the particulate membrane fraction following removal of unbound radiolabel by a rapid filtration procedure such as is standard in such studies) is antagonized by compounds which also bind to the membrane receptor sites and the degree of antagonism (observed in the test as displacement of membrane-bound radioactivity) is determined readily by comparing the receptor-bound radioactivity in the presence of the test compound at the specified test concentration with a control value determined in the absence of the test compound. Using this procedure compounds showing at least 50% displacement of radiolabelled AII binding at a concentration of 10^-4 M are retested at lower concentrations to determine their potency. […]

Usually ED50 stands for the midpoint of the dose-response relation. A high value points to weaker potency.

Take `Cc1cc2c(ccc(=O)n2Cc2ccc(-c3ccccc3-c3nnn[nH]3)cc2)c(C)n1.Cl` [Example I, 5,7-dimethyl-1[(2'-(1H-tetrazol-5-yl)biphenyl-4-yl)methyl]-1,6-naphthyridin-2(1H)-one hydrochloride]: the ED50 in test [1] worked out at 0.048 mg/kg. For the same compound, the IC50 in test [2] is 8.84 nM.
